Test results as given in patent US8486977B2, “1,2,3-triazole derivatives for use as stearoyl-CoA desaturase inhibitors” (GlaxoSmithKline LLC, priority 2007, dated 2013).

Row | Compound | melting point
1 | COC(=O)Cc1ccc(OC)c(NC(=O)c2nnn(Cc3ccc(Cl)c(Cl)c3)c2C)c1 [Example 35, Methyl [3-[({1-[(3,4-dichlorophenyl)methyl]-5-methyl-1H-1,2,3-triazol-4-yl}carbonyl)amino]-4-(methyloxy)phenyl]acetate] | 133 °C
2 | Cc1c(C(=O)Nc2cc(CO)cc(CO)c2)nnn1Cc1ccc(F)cc1 [Example 81, N-[3,5-bis(Hydroxymethyl)phenyl]-1-[(4-fluorophenyl)methyl]-5-methyl-1H-1,2,3-triazole-4-carboxamide] | 180.3 °C
3 | Cc1c(C(=O)Nc2ccc(F)c(CO)c2)nnn1Cc1ccc(Cl)c(Cl)c1 [Example 53, 1-[(3,4-Dichlorophenyl)methyl]-N-[4-fluoro-3-(hydroxymethyl)phenyl]-5-methyl-1H-1,2,3-triazole-4-carboxamide] | 189.7 °C
4 | CC(=O)NCc1cccc(NC(=O)c2nnn(Cc3ccc(Cl)c(Cl)c3)c2C)c1 [Example 43, N-{3-[(Acetylamino)methyl]phenyl}-1-[(3,4-dichlorophenyl)methyl]-5-methyl-1H-1,2,3-triazole-4-carboxamide] | 188.4 °C
5 | COc1ccc(C(=O)O)cc1NC(=O)c1nnn(Cc2ccc(Cl)c(Cl)c2)c1C [Example 64, 3-[({1-[(3,4-Dichlorophenyl)methyl]-5-methyl-1H-1,2,3-triazol-4-yl}carbonyl)amino]-4-(methyloxy)benzoic acid] | 243.9 °C
6 | Cc1c(C(=O)Nc2ccc(O)c(CO)c2)nnn1Cc1ccc(Cl)c(Cl)c1 [Example 26, 1-[(3 4 Dichlorophenyl)methyl]-N-[4-hydroxy-3-(hydroxymethyl)phenyl]-5-methyl-1H-1,2,3-triazole-4-carboxamide] | 175.6 °C
7 | COC(=O)c1ccc(OC)c(NC(=O)c2nnn(Cc3ccc(Cl)c(Cl)c3)c2C)c1 [Example 25, Methyl 3-[({1-[(3,4-dichlorophenyl)methyl]-5-methyl-1H-1,2,3-triazol-4-yl}carbonyl)amino]-4-(methyloxy)benzoate] | 203 °C
8 | Cc1c(C(=O)Nc2cc(C(=O)O)cc(C(=O)O)c2)nnn1Cc1ccccc1 [Example 65, 5-({[5-Methyl-1-(phenylmethyl)-1H-1,2,3-triazol-4-yl]carbonyl}amino)-1,3-benzenedicarboxylic acid] | 307.2 °C
9 | COc1ccc(CO)cc1NC(=O)c1nnn(Cc2cc(Cl)cc(Cl)c2)c1C [Example 57, 1-[(3,5-Dichlorophenyl)methyl]-N-[5-(hydroxymethyl)-2-(methyloxy)phenyl]-5-methyl-1H-1,2,3-triazole-4-carboxamide] | 214 °C
10 | Cc1c(C(=O)Nc2ccc(CCO)cc2)nnn1Cc1ccc(Cl)c(Cl)c1 [Example 50, 1-[(3,4-Dichlorophenyl)methyl]-N-[4-(2-hydroxyethyl)phenyl]-5-methyl-1H-1,2,3-triazole-4-carboxamide] | 144 °C
11 | Cc1c(C(=O)Nc2cccc(C(C)O)c2)nnn1Cc1ccc(Cl)c(Cl)c1 (centres unmarked) [Example 44, 1-[(3,4-Dichlorophenyl)methyl]-N-[3-(1-hydroxyethyl)phenyl]-5-methyl-1H-1,2,3-triazole-4-carboxamide] | 145 °C
12 | Cc1c(C(=O)Nc2ccc(OCc3ccccc3)cc2)nnn1Cc1ccccc1 [Example 7, 5-Methyl-1-(phenylmethyl)-N-{4-[(phenylmethyl)oxy]phenyl}-1H-1,2,3-triazole-4-carboxamide] | 125 °C
13 | COC(=O)c1cc(NC(=O)c2nnn(Cc3ccc(Cl)c(Cl)c3)c2C)ccc1F [Example 32, Methyl 5-[({1-[(3,4-dichlorophenyl)methyl]-5-methyl-1H-1,2,3-triazol-4-yl}carbonyl)amino]-2-fluorobenzoate] | 169.8 °C
14 | Cc1c(C(=O)Nc2cccc(C(=O)O)c2)nnn1Cc1ccc(Cl)c(Cl)c1 [Example 63, 3-[({1-[(3,4-Dichlorophenyl)methyl]-5-methyl-1H-1,2,3-triazol-4-yl}carbonyl)amino]benzoic acid] | 267.6 °C
15 | Cc1c(C(=O)Nc2ccc(CO)c(CO)c2)nnn1Cc1ccc(F)cc1 [Example 83, N-[3,4-bis(Hydroxymethyl)phenyl]-1-[(4-fluorophenyl)methyl]-5-methyl-1H-1,2,3-triazole-4-carboxamide] | 175.5 °C
16 | Cc1c(CO)cccc1NC(=O)c1nnn(Cc2ccccc2)c1C [Example 39, N-[3-(Hydroxymethyl)-2-methylphenyl]-5-methyl-1-(phenylmethyl)-1H-1,2,3-triazole-4-carboxamide] | 157 °C
17 | Cc1c(C(=O)Nc2ccc(OCCC(C)C)cc2)nnn1Cc1ccc(-c2ccccc2Cl)cc1 [Example 9, 1-[(2’-Chloro-4-biphenylyl)methyl]-5-methyl-N-{4-[(3-methylbutyl)oxy]phenyl}-1H-1,2,3-triazole-4-carboxamide] | 125 °C (dec.)
18 | Cc1c(C(=O)Nc2ccc(OCc3ccccc3)cc2)nnn1Cc1ccc(Br)cc1 [Example 3, 1-[(4-Bromophenyl)methyl]-5-methyl-N-{4-[(phenylmethyl)oxy]phenyl}-1H-1,2,3-triazole-4-carboxamide] | 168.7 °C
19 | Cc1c(C(=O)Nc2cc(CO)ccc2Cl)nnn1Cc1ccc(Cl)c(Cl)c1 [Example 56, N-[2-Chloro-5-(hydroxymethyl)phenyl]-1-[(3,4-dichlorophenyl)methyl]-5-methyl-1H-1,2,3-triazole-4-carboxamide] | 220 °C

Row | Compound | melting point
20 | Cc1c(C(=O)Nc2cc(CO)cc(CO)c2)nnn1Cc1cccc(F)c1 [Example 84, N-[3,5-bis(Hydroxymethyl)phenyl]-1-[(3-fluorophenyl)methyl]-5-methyl-1H-1,2,3-triazole-4-carboxamide] | 173.1 °C
21 | COC(=O)c1ccc(NC(=O)c2nnn(Cc3ccc(Cl)c(Cl)c3)c2C)cc1C(=O)OC [Example 46, Dimethyl 4-[({1-[(3,4-dichlorophenyl)methyl]-5-methyl-1H-1,2,3-triazol-4-yl}carbonyl)amino]-1,2-benzenedicarboxylate] | 148 °C
22 | Cc1c(C(=O)Nc2ccc(Cl)c(CO)c2)nnn1Cc1ccc(Cl)c(Cl)c1 [Example 45, N-[4-Chloro-3-(hydroxymethyl)phenyl]-1-[(3,4-dichlorophenyl)methyl]-5-methyl-1H-1,2,3-triazole-4-carboxamide] | 190.3 °C
23 | Cc1c(C(=O)Nc2cccc(O)c2)nnn1Cc1ccc(Cl)c(Cl)c1 | 192.5 °C
24 | CCOC(=O)c1cccc(NC(=O)c2nnn(Cc3ccc(Cl)c(Cl)c3)c2C)c1 [Example 20, Ethyl 3-[({1-[(3,4-dichlorophenyl)methyl]-5-methyl-1H-1,2,3-triazol-4-yl}carbonyl)amino]benzoate] | 131.8 °C
25 | Cc1c(C(=O)Nc2ccc(OCCC(C)C)cc2)nnn1Cc1ccccc1 | 124 °C
26 | CNC(=O)c1cccc(NC(=O)c2nnn(Cc3ccc(Cl)c(Cl)c3)c2C)c1 [Example 18, 1-[(3,4-Dichlorophenyl)methyl]-5-methyl-N-{3-[(methylamino)carbonyl]phenyl}-1H-1,2,3-triazole-4-carboxamide] | 203.9 °C
27 | CNC(=O)c1ccc(NC(=O)c2nnn(Cc3ccc(Cl)c(Cl)c3)c2C)cc1 [Example 19, 1-[(3,4-Dichlorophenyl)methyl]-5-methyl-N-{4-[(methylamino)carbonyl]phenyl}-1H-1,2,3-triazole-4-carboxamide] | 183.7 °C
28 | Cc1c(C(=O)Nc2cccc(OCCO)c2)nnn1Cc1ccc(Cl)c(Cl)c1 [Example 78, 1-[(3,4-Dichlorophenyl)methyl]-N-{3-[(2-hydroxyethyl)oxy]phenyl}-5-methyl-1H-1,2,3-triazole-4-carboxamide] | 144.9 °C
29 | COc1ccc(CO)cc1NC(=O)c1nnn(Cc2ccc(Cl)c(Cl)c2)c1C [Example 51, 1-[(3,4-Dichlorophenyl)methyl]-N-[5-(hydroxymethyl)-2-(methyloxy)phenyl]-5-methyl-1H-1,2,3-triazole-4-carboxamide] | 198 °C
30 | Cc1c(C(=O)Nc2cccc(CO)c2)nnn1Cc1ccc(Cl)c(Cl)c1 [Example 24, 1-[(3,4-Dichlorophenyl)methyl]-N-[3-(hydroxymethyl)phenyl]-5-methyl-1H-1,2,3-triazole-4-carboxamide] | 185.2 °C
31 | Cc1c(C(=O)Nc2cc(CO)ccc2F)nnn1Cc1ccc(Cl)c(Cl)c1 [Example 55, 1-[(3,4-Dichlorophenyl)methyl]-N-[2-fluoro-5-(hydroxymethyl)phenyl]-5-methyl-1H-1,2,3-triazole-4-carboxamide] | 210.5 °C
32 | Cc1c(NC(=O)c2ccc(CO)cc2)nnn1Cc1ccc(Cl)c(Cl)c1 [Example 93, N-{1-[(3,4-Dichlorophenyl)methyl]-5-methyl-1H-1,2,3-triazol-4-yl}-4-(hydroxymethyl)benzamide] | 160 °C
33 | COC(=O)c1cc(NC(=O)c2nnn(Cc3cc(Cl)cc(Cl)c3)c2C)ccc1F [Example 47, Methyl 5-[({1-[(3,5-dichlorophenyl)methyl]-5-methyl-1H-1,2,3-triazol-4-yl}carbonyl)amino]-2-fluorobenzoate] | 191 °C
34 | COC(=O)Cc1cccc(NC(=O)c2nnn(Cc3ccc(Cl)c(Cl)c3)c2C)c1 [Example 30, Methyl {3-[({1-[(3,4-dichlorophenyl)methyl]-5-methyl-1H-1,2,3-triazol-4-yl}carbonyl)amino]phenyl}acetate] | 116 °C
35 | COc1ccc(NC(=O)c2nnn(Cc3ccc(C)cc3)c2C)cc1OC | 156 °C (dec.)
36 | COC(=O)c1ccc(Cl)c(NC(=O)c2nnn(Cc3ccc(Cl)c(Cl)c3)c2C)c1 [Example 34, Methyl 4-chloro-3-[({1-[(3,4-dichlorophenyl)methyl]-5-methyl-1H-1,2,3-triazol-4-yl}carbonyl)amino]benzoate] | 206.4 °C
37 | COC(=O)c1ccc(NC(=O)c2nnn(Cc3ccc(Cl)c(Cl)c3)c2C)cc1OC [Example 28, Methyl 4-[({1-[(3,4-dichlorophenyl)methyl]-5-methyl-1H-1,2,3-triazol-4-yl}carbonyl)amino]-2-(methyloxy)benzoate] | 175.9 °C
38 | CC(=O)Nc1cccc(NC(=O)c2nnn(Cc3ccc(Cl)c(Cl)c3)c2C)c1 [Example 21, N-[3-(Acetylamino)phenyl]-1-[(3,4-dichlorophenyl)methyl]-5-methyl-1H-1,2,3-triazole-4-carboxamide] | 203.4 °C
